Measured values published in US6362010B1, “Methods and compositions for release of CD3430 cells from affinity matrices” (priority 1995, dated 2002).
Read-outs that look alike come from different tables or passages of the source.

What was measured:
mAb12.8 [1] = type: binding; details: for binding to mAb12.8: ELISA of Example 2 part A / Example 3, FIG. 4, GM3 immobilized from methanol; for A450 (absorbance at 450 nm): 10 μg/mL mAb12.8
Experimental: Microtiter plates are prepared with serial dilutions of 3′SL-HSA (prepared as described in Example 1) in Tris-Ca^++ buffer (0.05M Tris HCl, pH 7.5, 0.15 M NaCl, 2 mM CaCl2), starting with 500 ng/well. The plates are incubated at 37° C. for 1 hour to immobilize the carbohydrate on the plastic well surface.
100 μl of 2% BSA in Tans-Cat^++ buffer is added to each well, and the plates are incubated at room temperature for 1 hour, and washed 3 times with Tris-Ca^++ buffer. 100 μl of 10 μg/mL mAb12.8 in 1% BSA Tris-Ca^++ buffer is then added to each well, and the plates are incubated at room temperature for 2 hours. Again, the plates are washed 3 times with Tris-Ca^++ buffer.
100 μl of 1 μg/mL peroxidase-labeled goat anti-mouse IgM (KPL, Inc., Gaithersburg, Md.) in 1% BSA Tris-Ca^++ buffer is added to each well, and the plates are incubated at room temperature for 1 hour, and washed 3 times with Tris-Ca^++ buffer. 100 μl of TMB (tetramethylbenzidine) substrate solution (KPL, Inc., Gaithersburg, Md.) is then added to each well, and the reaction is allowed to proceed for 2 minutes. The reaction is stopped, and detection enhanced, by the addition of 100 μl of 1M formic acid/well. The absorbance at 450 nm is then determined in a Titertek Multiskan MCC/340 plate reader (Flow Laboratories. Inc., McLean, Va.).
To illustrate the specificity of the interaction between 3′SL-HSA and mAb 12.8, and to further characterize the epitope of the antibody, the assay described in Example 2, part A, is performed using the control carbohydrates shown below:
The assays of each of the above HSA conjugates are performed as described for 3′SL-HSA. For GM3, the assay is as described above except that dilutions of GM3 are prepared in methanol, and immobilization on the plastic well surface is achieved by allowing the methanol to completely evaporate under an exhaust hood. After immobilization, 100 μl of 1% BSA in Tris-Ca^++ buffer is added to the wells containing GM3.

mAb12.8 [2] = test: ELISA, binding of defucosylated SLe^x epitope to mAb12.8 with and without α1,3,4 fucosidase treatment; design: species or system mouse; details: 250 ng per well, FIG. 3; for binding to mAb12.8 after fucosidase treatment: 200 units per well α1,3,4 fucosidase, 37° C. overnight
Experimental: In a related experiment, the binding of a partially defucosylated SLe^X epitope (coupled to HSA) is evaluated using a similar ELISA. […] 100 μl of 2% BSA in Tris-Ca^++ buffer is added to each well to block further non-specific binding, and the plates are incubated at room temperature for 1 hour, followed by 2 washes with Tris-Ca^++ buffer. 200 units per well of α1,3,4 fucosidase (New England Biolabs, Beverly, Mass.) in citrate buffer (pH 4.0) is then added to half of the wells. The plates are covered and incubated at 37° C. overnight.
The plates are then washed three times with Tris-Ca^++ buffer and mAb12.8 (100 μl of 10 μg/mL mAb12.8 in Tris-Ca^++ buffer) is then added to each well except for 1 negative control for each condition. The plates are incubated at room temperature for 2 hours.
The plates are then washed 3 times with Tris-Ca^++ buffer, and 100 μl of 1 μg/mL peroxidase-labeled goat anti-mouse IgM (KPL, Inc., Gaithersburg, Md.) in 1% BSA Tris-Ca^++ buffer is added to each well. The plates are incubated at room temperature for 1 hour. The wells are then washed 5 times with Tris-Ca^++ buffer, and 100 μl of TMB substrate solution (KPL, Gaithersburg, Md.) is added to each well, and the reaction is allowed to proceed for 2 minutes. The reaction is stopped, and detection enhanced, by the addition of 100 μl of IM formic acid/well. The absorbance at 450 nm is then determined in a Titertek Multiskan MCC/340 plate reader (Flow Laboratories, Inc., McLean, Va.).

[3] = test system: KG1A cells bound to mAb12.8; test: Parallel plate flow assay, inhibition of CD34+ (KG1A) cell binding to immobilized mAb12.8; type: cell-based; details: 200 ng carbohydrate per dish, 250 ng mAb12.8, wall shear stress 0.48 dynes/cm^2 for 2 minutes; FIG. 5
Experimental: This Example illustrates the use of a representative carbohydrate according to this invention to release KG1A cells (ATCC No. CCL246.1, Rockville, Md.) bound to mAb12.8.
Monoclonal antibody 12.8 is immobilized on 35 mm tissue culture dishes by adsorption, as shown below:
Each substrate is coated on the dish and incubated at 37° C. for 1 hour prior to adding the next substrate or running the flow assay. The flow assay utilizes a parallel plate flow chamber mounted on an inverted-stage microscope to visualize the adhesive interactions between cells and substrates. Each dish is attached to the flow chamber and mounted on the microscope stage.
To prevent binding of the cells to mAb12.8 by way of Fc receptors on the cell surface, human IgG ([…]) is added to the KG1A cells 10 minutes prior to the flow assay. In addition, 200 ng of 3′SL-HSA is added to dish 2, and 200 ng of 6′SL-HSA is added to dish 3, and flow is initiated such that the cells flow over the surface of the dish at a wall shear stress of 0.48 dynes/cm^2 for 2 minutes, prior to collecting images at 7 different locations on the dish. The images are then quantified, using video microscopy coupled to digital image processing, to determine the number of adherent cells in each image, and the number of cells in the 7 images are averaged.

mAb12.8 [4] = test: ELISA, effect of varying linker arm and carrier group on carbohydrate binding to mAb12.8; design: species or system mouse; details: 100 μl of carbohydrate at 0.5 μg/ml immobilized; 10 μg/ml mAb12.8; FIG. 2
Experimental: The effect of altering the chemical linker arm and carrier group on the 3′SL binding to mAb12.8 is evaluated using the following carbohydrates, prepared as described in example 1: 3′SL-APD-dendrimer. 3′SL-APD-BSA. 3′SL-APEA-BSA, 3′SL-APD-HSA and 6′SL-APD-HSA.
100 μl of each of the above carbohydrates is added to duplicate wells in a 96-well microtiter plate at 0.5 μg/ml. The plates are incubated overnight at 4° C. to immobilize the carbohydrates on the plastic well surface. The wells are then washed three times and filled with Tris-Cat^++ buffer (0.05 M Tris-HCl, pH 7.5, 0.15 M NaCl, 2 mM CaCl2) containing 1% BSA. The plates are then incubated for 1 hour at room temperature to block nonspecific binding.
The plates are washed three times with Tris-Ca^++ buffer and mAb 12.8 (100 μl of 10 μg/ml in Tris-Ca^++ buffer) is added to all wells except one negative control for each condition. The plates are incubated for an additional two hours at room temperature. […]
Wells are washed five times with Tris-Ca^++ buffer and 100 μl of tetramethylbenzidine solution (TMB substrate solution. KPL, Inc., Gaithersburg, Md.) is added. […] The microtiter plate is read in a Titertek Multiskan MCC/340 plate reader (Flow Laboratories, Inc., McLean, Va.) set at a wavelength of 450 nm.

Substance	binding to mAb12.8 (mAb12.8 [1])	binding to mAb12.8 after fucosidase treatment (mAb12.8 [2])	also measured
Neu5Acα2-3Galβ1-4(Glc)-APD-HSA [3′SL-HSA]	binds to mAb12.8	no detectable effect on binding	A450 (absorbance at 450 nm) (mAb12.8 [1]; about 100 ng per well immobilized carbohydrate): greater than 1; A450 (absorbance at 450 nm) (mAb12.8 [1]; about 200 ng per well immobilized carbohydrate): ~3; A450 (absorbance at 450 nm) (mAb12.8 [1]; amounts less than about 70 ng/well immobilized carbohydrate): approximately 0.5; binding to mAb12.8 (mAb12.8 [2]; absence of fucosidase treatment): bind to mAb12.8; inhibition of binding of KG1A cells to mAb12.8 [3]: inhibits the binding of KG1A cells to mAb12.8
Neu5Acα2-3Galβ1-4Glcβ1-1Ceramide [GM3, reference compound]	does not bind	–	–
Neu5Acα2-3Galβ1-4GlcNAcβ1-3Galβ1-4(Glc)-HSA	–	bind to mAb12.8	–
Neu5Acα2-6Galβ1-4(Glc)-APD-HSA [6′SL-HSA, reference compound]	does not bind	–	binding to mAb12.8 (mAb12.8 [4]): does not bind
Neu5Acα2-3Galβ1-3GlcNAcβ1-3Galβ1-4(Glc)-APD-HSA [LSTa-HSA, reference compound]	does not bind	–	–
